From patent publication US20120142723A1, “ACE2 ACTIVATOR COMPOUNDS AND METHODS OF USE THEREOF” (University of Florida Research Foundation, Inc., priority 2006, published 2012) come the findings set out here.

Data set [1] has as its target T1, Human recombinant ACE (Homo sapiens, UniProt P12821).
T1 construct: purchased R&D Systems, Minneapolis, Minn; 929-ZN-10
In words: ACE activity assay with fluorogenic peptide V. The format is biochemical. On the procedure: (§1) Activity of ACE and ACE2 was measured with a Spectra Max Gemini EM Florescence Reader (Molecular Devices). The enzyme removes the c-terminal dinitrophenyl moiety that quenches the inherent fluorescence of its 7-methoxycoumain group, resulting in an increase in fluorescence in the presence of enzyme activity. Fluorescence was measured with excitation and emission spectra of 328 nm and 392 nm, respectively. Reaction mixtures were prepared in 100 μl volumes and different concentrations of compound were tested against 10 μM substrate. 10 nM enzyme in 100 mM NaCl, 75 mM Iris, 0.5 μM ZnCl2, at pH 7.4. Samples were read every 15-20 seconds for at least 30 minutes immediately after the addition of fluorogenic peptide substrate at 37° C. Assays, including controls, were performed in the presence of 1% dimethyl sulfoxide (DMSO). Although higher concentrations of NaCl increase the activity of ACE2 and ACE (Vickers et al. 2002), a low concentration of salt (100 mM NaCl) was used in the assays to allow for enhancement of enzymatic activity to be detectable. That is, using 1 M NaCl which gives a maximal enhancing effect from the Cl ions might not allow the compounds to further enhance the activity of the enzyme. The lower salt concentration should give the compounds available room for activation.
Controls in the presence and absence of DMSO and without compound were carried out to evaluate the effect of DMSO on the activity of ACE and ACE2. […]
Human recombinant ACE and ACE2 were obtained from R&D systems, Minneapolis, Minn., along with their respective fluorogenic substrates (ACE, catalog ID: 929-ZN-10; ACE2, 933-ZN-10; ACE substrate, fluorogenic peptide V, Mca RPPGFSAFK(Dnp)-OH, catalog ID: ES005; ACE2 substrate, fluorogenic peptide VI, Mca-YVADAPK(Dnp)-OH, ES007). Enzymatic activity was measured with a Spectra Max Gemini EM Fluorescence Reader (Molecular Devices) (Huentelman et al., Regul. Pept. 122:61-67 (2004)). […] Samples were read every 15-30 seconds for at least 30 minutes immediately after the addition of fluorogenic peptide substrates at 37° C. […]

Data set [2] can be described thus: Solubility as observed during assays and formulation. The format is physicochemical. An excerpt:
Recombinant ACE and ACE2 were obtained in purified form from R&D Systems, Minneapolis, Minn. (catalog ID: 929-ZN-10 and 933-ZN-10, respectively). Substrates for ACE (fluorogenic peptide V, Mca-RPPGFSAFK(Dnp)-OH, catalog ID: ES005), and for ACE2 (fluorogenic peptide VI, Mca-YVADAPK(Dnp)-OH, catalog ID: ES007) were also obtained from R&D systems. Top scoring molecules were obtained from the National Cancer Institute (NCI) for functional testing. Dry compounds were resuspended in 100% DMSO to prepare 100 mM stock solutions, according to the amount of compound provided by the NCI and its molecular weight. Gentle heating to 60-80 C was carried out to assist their solubilization. Some compounds were further diluted to 50 mM stocks if clearly difficult to dissolve.
XNT was dissolved in saline at low pH (2-2.5) for in vivo studies. This compound was consistently prepared 24-48 hours before delivery in animals. XNT was prepared on a gram scale in six synthetic steps from 5-methoxysalicylic acid and m-chloroiodobenzene through modifications of a published procedure (Archer et al., J. Med. Chem. 26:1240-1246 (1983); Archer et al., J. Med. Chem. 31:254-260 (1988).

In data set [3] the target is T2, human recombinant ACE2 (Homo sapiens, UniProt Q9BYF1).
T2 construct: purchased R&D Systems, Minneapolis, Minn; 933-ZN-10
T2 sequence (Q9BYF1 18-740 limits assumed): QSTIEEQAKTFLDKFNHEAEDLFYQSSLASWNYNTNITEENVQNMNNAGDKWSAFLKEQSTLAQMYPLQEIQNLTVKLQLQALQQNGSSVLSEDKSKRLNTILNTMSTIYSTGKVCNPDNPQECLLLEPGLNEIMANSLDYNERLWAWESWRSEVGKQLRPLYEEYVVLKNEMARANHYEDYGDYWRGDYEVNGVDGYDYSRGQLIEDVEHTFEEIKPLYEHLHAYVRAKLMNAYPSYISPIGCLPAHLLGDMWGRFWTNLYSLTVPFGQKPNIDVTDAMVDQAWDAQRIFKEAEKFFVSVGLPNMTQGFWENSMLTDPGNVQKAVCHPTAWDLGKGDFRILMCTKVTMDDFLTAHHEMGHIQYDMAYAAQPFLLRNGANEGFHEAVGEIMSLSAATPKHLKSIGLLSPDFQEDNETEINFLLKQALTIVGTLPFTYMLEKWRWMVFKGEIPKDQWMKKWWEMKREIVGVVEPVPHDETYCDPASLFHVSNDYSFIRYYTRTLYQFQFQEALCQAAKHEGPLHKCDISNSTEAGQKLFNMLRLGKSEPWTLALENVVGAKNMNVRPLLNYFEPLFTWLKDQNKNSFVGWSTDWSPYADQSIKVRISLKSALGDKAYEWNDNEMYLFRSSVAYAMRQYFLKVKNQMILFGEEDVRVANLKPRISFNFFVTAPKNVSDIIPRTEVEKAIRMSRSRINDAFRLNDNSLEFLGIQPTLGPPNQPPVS
Kind of data set: ACE2 activity assay with fluorogenic peptide VI. The class given is biochemical. On the procedure: as §1
Controls in the presence and absence of DMSO and without compound were carried out to evaluate the effect of DMSO on the activity of ACE and ACE2. Assays with no DMSO, 1% DMSO, and 2% DMSO were performed in identical conditions (i.e, pH, temperature, salt concentration, reaction mix volume and so on) to those of the experimental assays.
The experimental assays were corrected at each concentration since higher or lower concentrations of compounds affected the background signal in a concentration dependent manner.
Human recombinant ACE and ACE2 were obtained from R&D systems, Minneapolis, Minn., along with their respective fluorogenic substrates (ACE, catalog ID: 929-ZN-10; ACE2, 933-ZN-10; ACE substrate, fluorogenic peptide V, Mca RPPGFSAFK(Dnp)-OH, catalog ID: ES005; ACE2 substrate, fluorogenic peptide VI, Mca-YVADAPK(Dnp)-OH, ES007). Enzymatic activity was measured with a Spectra Max Gemini EM Fluorescence Reader (Molecular Devices) (Huentelman et al., Regul. Pept. 122:61-67 (2004)). Compounds were tested against 50 μM substrate. All assays were performed at least in triplicate in a reaction mixture containing 10 nM enzyme, 1 M NaCl, 75 mM Tris-HCl, 1% DMSO and 0.5 μM ZnCl2, at pH 7.4. Samples were read every 15-30 seconds for at least 30 minutes immediately after the addition of fluorogenic peptide substrates at 37° C. […] Enzyme activity was corrected for background.

[4] abbreviates: listed as resorcinolnaphthalein.

“Also recorded” adds a separate entry of the source. Read-outs that look alike come from different tables or passages of the source.

T1 sequence (P12821 30-1261 limits assumed): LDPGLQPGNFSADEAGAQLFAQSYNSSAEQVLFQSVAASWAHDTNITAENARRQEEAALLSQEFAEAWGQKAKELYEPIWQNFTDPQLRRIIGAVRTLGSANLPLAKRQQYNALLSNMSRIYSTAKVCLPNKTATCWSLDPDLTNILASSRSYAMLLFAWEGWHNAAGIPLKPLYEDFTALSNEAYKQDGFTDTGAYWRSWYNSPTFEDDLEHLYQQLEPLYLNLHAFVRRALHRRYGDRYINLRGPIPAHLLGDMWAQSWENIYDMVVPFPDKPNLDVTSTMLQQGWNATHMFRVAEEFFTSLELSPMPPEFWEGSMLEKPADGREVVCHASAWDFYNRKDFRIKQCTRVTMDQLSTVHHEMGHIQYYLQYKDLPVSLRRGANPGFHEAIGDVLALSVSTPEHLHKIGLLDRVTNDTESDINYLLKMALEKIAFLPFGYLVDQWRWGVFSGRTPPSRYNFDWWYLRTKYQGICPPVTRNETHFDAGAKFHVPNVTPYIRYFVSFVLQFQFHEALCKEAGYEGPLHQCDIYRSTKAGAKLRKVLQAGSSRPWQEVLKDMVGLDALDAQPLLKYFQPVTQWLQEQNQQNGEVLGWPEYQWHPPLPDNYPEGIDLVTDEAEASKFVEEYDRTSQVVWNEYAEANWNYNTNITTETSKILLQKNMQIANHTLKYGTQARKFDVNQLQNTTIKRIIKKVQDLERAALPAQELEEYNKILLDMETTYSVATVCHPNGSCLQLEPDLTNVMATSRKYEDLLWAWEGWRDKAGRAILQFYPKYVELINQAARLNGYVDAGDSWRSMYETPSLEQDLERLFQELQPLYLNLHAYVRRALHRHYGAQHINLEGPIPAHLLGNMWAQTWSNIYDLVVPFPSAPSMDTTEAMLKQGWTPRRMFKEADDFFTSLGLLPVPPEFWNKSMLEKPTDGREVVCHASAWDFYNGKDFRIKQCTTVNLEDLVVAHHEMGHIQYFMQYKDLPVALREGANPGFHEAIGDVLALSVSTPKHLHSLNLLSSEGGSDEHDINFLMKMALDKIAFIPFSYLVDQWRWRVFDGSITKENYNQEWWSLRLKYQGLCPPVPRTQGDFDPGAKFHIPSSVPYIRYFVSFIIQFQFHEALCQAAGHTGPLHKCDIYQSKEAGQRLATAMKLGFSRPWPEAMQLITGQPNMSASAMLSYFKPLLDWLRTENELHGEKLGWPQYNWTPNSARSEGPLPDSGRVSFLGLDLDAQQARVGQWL

As to `O=C1OC2(c3ccc(O)cc3Oc3cc(O)ccc32)c2cccc3cccc1c23` [Compound 6, resorcinalnaphthalein], the ACE activity result was “do not enhance ACE activity” in data set [1], “did not activate; also recorded: not enhanced” in data set [1] (50 or 100 μM compound) and “did not significantly affect” in data set [1] (setting [4]). Besides, the solubility result in data set [2] was “significantly more insoluble”. In addition, the “ACE2 activity, dose response” value was “did not show the same dose response” in data set [3] and “dose-dependent manner” in data set [3] (setting [4]). Moreover, the ACE2 activity result in data set [3] (100 μM compound) is given as “ACE2-specific enhancement”; in data set [3] (500 μM compound) it was “returned down to control level”; in data set [3] (20, 50 and 100 μM compound) it was “activated ACE2 identically; also recorded: identical curves”; in data set [3] (concentrations higher than 100 μM), “inhibited ACE2”. The “increase of ACE2 activity” value in data set [3] (100 μM compound, FIG. 3, 40 minute time course) is “about 2 fold”; in data set [3] (initial functional screening), “about 2 fold”. Besides, in data set [3] (confirmation assay, 1% DMSO), the “enhancement of ACE2 enzymatic activity” value came to 2 fold.
